Experimental data as given in PubChem BioAssay AID977607 (Broad Institute, 2014).
Active and inactive are the calls of the source.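 Rule for the calls: active = curve reaches 40% activation over neutral controls at an AC40 no higher than the top valid tested concentration; inconclusive = no clear call, values can overlap the other calls; inactive = signal moving opposite to the expected increase, and the rest.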

What follows are compounds tested on INS-1E GLuc insulin secretion reporter, luminescence, 2-3 h (assay: GLuc-reported insulin release enhancers, glucose-stimulated beta cells – cell-based, INS-1E, Gaussia luciferase, luminescence, cherry-pick, set 2, dose response (AID 977607)).

Row | SMILES | AC40
1 | CCCCCCN1C[C@H](n2cc(C3CC3)nn2)[C@@H](O)C[C@@H]1c1ccc(C)cc1 | 7.33 µM
2 | O=C(Nc1nnc(-c2ccccc2SCc2ccccc2F)s1)Nc1ccccc1F | 16.7 µM
3 | OC(CNCCC1C=Nc2ccccc21)Cn1c2ccc(Cl)cc2c2cc(Cl)ccc21 (stereo not drawn) | 4.84 µM
4 | COc1ccc(-c2ccncc2)cc1OC | 13 µM
5 | COc1cccc(-c2cc(C(=O)Nc3cc(C)on3)no2)c1 | 19.2 µM
6 | CCOc1ccc(/C=N/NC(=O)c2cc(-c3ccco3)nc3ccccc23)cc1 | 8.25 µM
7 | CCN(Cc1ccccc1)S(=O)(=O)c1ccc(C(=O)N(CCCN(C)C)c2nc3cc(C)cc(C)c3s2)cc1 | 17.4 µM
8 | COc1ccc(C(=O)NCC(=O)OCC(=O)Nc2ccc(C)c(S(=O)(=O)N(C)C)c2)cc1OC | 1.67 µM
9 | Cc1ccc(-c2ccc(C3[C@@H]4CN(Cc5cccc(F)c5)C[C@H]3N4)cc2)cc1 (stereo partly drawn) | 3.07 µM
10 | N#Cc1c(-c2ccncc2)cc(-c2ccc(F)cc2)nc1N | 2.96 µM
11 | Cc1cccc(-c2ccc(C3[C@@H]4CN(C(=O)Nc5ccc(C(F)(F)F)cc5)C[C@H]3N4)cc2)c1 (stereo partly drawn) | 1.09 µM
12 | CCNC(=O)NC(=O)C(C)OC(=O)c1oc2ccccc2c1CSC1CCCCC1 (stereo not drawn) | 5.51 µM
13 | NC(=O)COC(=O)c1ccccc1Oc1ccccc1 | 6.24 µM
14 | O=C(NCCC1=CCCCC1)C(=O)NCC(c1ccco1)N1CCN(c2ccccc2)CC1 (stereo not drawn) | 6.33 µM
15 | CCOC(=O)[C@]12Cc3c(cc(OC)c(OC)c3OC)[C@H]1N(C1CCCCC1)C(=O)c1cc(OC)ccc12 | 15.5 µM
16 | COC(=O)C1=C(C)N(Cc2cccc(C(F)(F)F)c2)C(=NCc2ccc(OC)cc2)NC1c1cccc(Cl)c1 (stereo not drawn) | 9.96 µM
17 | O=C(O)c1ccc(-n2nnnc2SCc2ccccc2F)cc1 | 0.0781 µM
18 | NC(N)=N/N=C/c1ccc(OCc2ccccc2)c(OCc2ccccc2)c1 | 10.2 µM
19 | COc1ccc(CCNS(=O)(=O)c2cn(C)cn2)cc1OC | 4.84 µM
20 | C/C(=N\NC(=O)c1ccc(Cl)c(Cl)c1)c1ccc(Br)s1 | 9.32 µM
21 | O=C(N/N=C/c1ccc(Cl)cc1Cl)Nc1ccccc1 | 7.74 µM
22 | Cc1ccc(S(=O)(=O)N2C[C@@H]3N[C@H](C2)C3c2ccc(/C=C/c3ccccc3)cc2)cc1 (stereo partly drawn) | 7.9 µM
23 | N#Cc1ccc(-c2ccc([C@@H]3[C@H]4CNC[C@@H]3N4Cc3cc(F)ccc3F)cc2)cc1 | 16 µM
24 | CC1(C(=O)NS(=O)(=O)c2ccc(Cl)s2)CCN1C(=O)C1(c2ccc(Cl)cc2)CCC1 (stereo not drawn) | > 35 µM (inactive)
25 | O=C1CC(Sc2nnc(-c3ccccc3)o2)C(=O)N1c1ccccc1 (stereo not drawn) | 12.1 µM
26 | CNC[C@@H](Cc1ccccc1)NC[C@@H](CC1CCCCC1)NCCCc1ccccc1 | > 35 µM (inactive)
27 | O=C(OCC12CC3CC(CC(C3)C1)C2)c1ccc(NCc2cc(O)ccc2O)cc1 | 14.9 µM

Row | SMILES | AC40
28 | COc1cc2c(cc1OC)-c1cc(Nc3ccc(C)cc3)nc(=O)n1CC2 | 11.8 µM
29 | CCCCn1c(N2CCCC2)nc2c1c(=O)[nH]c(=O)n2C | 5.57 µM
30 | COc1ccc(C(C)NCCC(c2ccc(OC(C)C)cc2)c2ccccc2OC)cc1 (stereo not drawn) | 7.95 µM
31 | CCC(C)c1ccccc1OCCCN(C)Cc1ccccc1 (stereo not drawn) | 7.97 µM
32 | CC(C)C[C@H](NC(=O)c1[nH]cnc1C(=O)N[C@@H](C)c1ccccc1)C(=O)OC(C)(C)C | 31.3 µM
33 | COC(=O)C1=C(C)N(Cc2cccc(C(F)(F)F)c2)C(=NCc2ccc(C(F)(F)F)cc2)NC1c1ccccc1 (stereo not drawn) | 9.69 µM
34 | CCc1c(C)sc(NC(=O)c2cc(-c3ccc(OC)c(OC)c3)on2)c1C#N | 9.5 µM
35 | COc1ccc(/C=N/NC(=O)c2ccc(COc3ccccc3Cl)o2)c(OC)c1C | 5.44 µM
36 | CN(Cc1c(C(=O)N/N=C/c2ccccc2O)nnn1-c1nonc1N)C1CCCCC1 | 9.53 µM
37 | NS(=O)(=O)c1ccc(NC(=S)N2CCN(c3ccc(Cl)c(Cl)c3)CC2)cc1 | 9.46 µM
38 | CC(NC(=O)COC(=O)c1ccccc1Nc1ccccc1)c1ccccc1 (stereo not drawn) | 12.2 µM
39 | COC(=O)C1=C(C)N(Cc2cccc(C(F)(F)F)c2)C(=NCc2ccc(OC)cc2)NC1c1ccc(F)cc1 (stereo not drawn) | 15.5 µM
40 | CCCCc1c(-c2ccccc2F)ncn1CCc1ccccc1OC | 7.64 µM
41 | Cc1cc(OCCCN2CCC(C(O)(c3ccccc3)c3ccccc3)CC2)ccc1Br | 4.77 µM
42 | COc1ccc(S(=O)(=O)N2CCc3ccccc32)cc1C(=O)Nc1ccc(C(N)=O)cc1 | 16.3 µM
43 | C=CCn1c(=NC(=O)c2cc(Cl)sc2Cl)sc2cc(S(N)(=O)=O)ccc21 | 5.55 µM
44 | O=C(O)c1ccc(-n2nc(-c3ccccc3)c3ccccc3c2=O)cc1 | > 35 µM (inactive)
45 | CCOC(=O)c1oc2cc(O)cc(C)c2c1C | 15.1 µM
46 | O=S(=O)(c1ccccc1F)N1C[C@@H]2N[C@H](C1)C2c1ccc(/C=C/c2ccccc2)cc1 (stereo partly drawn) | 6.46 µM
47 | COc1ccc(C2CNC(=O)C2)cc1OC1CCCC1 (stereo not drawn) | 1.98 µM
48 | CN(C)CCCNc1cc(C(C)(C)C)nc2c(-c3ccc(Cl)cc3)cnn12 | 7.08 µM
49 | COc1ccc(/C=N/NC(=O)CCOc2ccccc2C)cc1OC | 7.01 µM
50 | COc1ccc(Cc2nnc(NC(=O)Cc3cccs3)s2)cc1OC | 0.234 µM
51 | Cc1cccc(NC(=O)c2ccc(OCc3c(C)noc3C)cc2)c1C | 1.54 µM
52 | Cc1[nH]c2ccc(OC(F)(F)F)cc2c1CCNCc1ccc(Cl)cc1 | 6.14 µM
53 | COc1ccc(C(=O)N=C2CCC(C#N)=C3c4cc(OC)c(OC)cc4CCN23)cc1 | 0.483 µM
